What was measured:
high-MAP3K8 PDX model [1] = experiment: Efficacy study in patient-derived xenograft, high-MAP3K8 PDX model; assay type: in vivo, mouse; conditions: for tumor growth inhibition (TGI): per os 5 times a week for 4 weeks, AZD6244 50 mg/kg, MEK162 25 mg/kg; for tumor growth: treated vs untreated
Description: (§1) Grafting experiments were performed by subcutaneous injection of 2.7×10^6 exponentially growing SKOV3 stable cell lines into each flank of 6-week-old female Swiss nude mice (at least five mice per group). Patient derived xenograft (PDX) models of EOC tumors were established at the Curie Institute with patient consent (Paris, France). For efficacy studies in PDX models, at least 8 mice per group were treated per os 5 times a week for 4 weeks either left untreated (Ctrl) or treated with the following MEK inhibitors AZD6244 at 50 mg/kg, (Selleckchem #S100817) or MEK162 25 mg/kg (Active Biochem #A-1128) both diluted into 2% DMSO, 10% 2-Hydroxypropyl-beta-cyclodextrin, 5% glucose in PBS. Tumor growth was evaluated by measuring two perpendicular diameters of tumors with a caliper twice a week. Individual tumor volumes were calculated as (V)=a×b2/2, with a being the major diameter, and b the minor one. For each tumor, V was reported to the initial volume as relative tumor volume (RTV). Means (and s.e.m) of RTV in the same treatment group were calculated, and growth curves were established as a function of time. The tumor growth inhibition (TGI) was calculated using the following formula: 100−100×([…]). Curie Institute ethical committee approved all experiments.

high-MAP3K8 PDX model [2] = experiment: Lung metastasis detection in PDX by RT-qPCR for human Alu sequences; assay type: in vivo, mouse; conditions: compared to low-MAP3K8 PDX model
low-MAP3K8 PDX model = experiment: Efficacy study in patient-derived xenograft, low-MAP3K8 PDX model; assay type: in vivo, mouse; conditions: for tumor growth inhibition (TGI): per os 5 times a week for 4 weeks, AZD6244 50 mg/kg, MEK162 25 mg/kg; for tumor growth: treated vs untreated
Description: as §1

SKOV3 cells [3] = experiment: Growth kinetics of SKOV3 cells (living cells counted by trypan blue exclusion); assay type: cell-based, human
Description: (§2) The human epithelial ovarian cancer cell line SKOV3 and the SKOV3 stable cell lines were propagated in DMEM (Gibco) supplemented with 10% fetal bovine serum (FBS, PAA), penicillin and streptomycin (Gibco). 1 μg/mL puromycin was added only for SKOV3 stable cell lines. For SKOV3 stable cell lines, 10% serum stimulation was performed after overnight serum starvation for the indicated times. SKOV3 cells were plated and immediately treated or not with 5 μM MAP3K8 kinase inhibitor (KI, Calbiochem #616373) for the indicated times. The number of living cells was measured by trypan blue exclusion using Vi-Cell analyzer (Beckman Coulter). Cell cycle distributions were performed on ethanol-fixed cells, stained with propidium iodide and analyzed by flow cytometry. Flow cytometry data were acquired using CellQuest Pro (Becton Dickinson) software on the FACS LSRII machine (Becton Dickinson) and were analyzed using ModfitLT (Verity) software.

p38MAPK = experiment: Western blot of serum-induced p38MAPK phosphorylation in SKOV3 cells; assay type: cell-based, human; conditions: SKOV3, KI 5 μM or 10 μM 1 h prior to 15 min 10% serum stimulation
Description: (§3) After overnight serum starvation (—FBS), SKOV3 cells and SKOV3 stable cell lines were stimulated with 10% serum for 15 minutes (+FBS). SKOV3 cell line was treated or not with 5 μM or 10 μM MAP3K8 kinase inhibitor as indicated (KI_5 μM or KI_10 μM) for 1 h prior to serum stimulation. After treatment, cells were washed once with cold PBS and scraped on ice with lysis buffer (50 mM Tris-HCl pH 7.5, 1 mM EDTA, 1 mM EGTA, 1% triton X-100, 1 mM Na3VO4, 50mMNaF, 0.27M sucrose, 0.1% β-mercaptoethanol) supplemented with EDTA-free protease inhibitor cocktail tablet (Roche #1836170). For immunoprecipitation (IP), 4×10^6 SKOV3 cells were plated into 10 cm petri dish. […] The protein concentration of the supernatant was determined using the Bio-Rad Dc Protein Assay Kit according to the manufacturer's instructions (Bio-Rad Laboratories). […]
(§4) For western blot analysis, samples were loaded onto homemade or precast 10% polyacrylamide gels (Invitrogen). […] Specific binding of antibodies was detected using appropriate peroxidase-conjugated secondary antibodies (Jackson ImmunoResearch Laboratories #115-035-003 and 115-035-045), and was visualized by enhanced chemiluminescence detection (Western Lightning® Plus-ECL, PerkinElmer). […]

SKOV3 cells [4] = experiment: Cell cycle analysis by flow cytometry (propidium iodide); assay type: cell-based, human; conditions: KI treatment vs untreated control cells
Description: as §2

NF-κB = experiment: Western blot of serum-induced NF-κB phosphorylation in SKOV3 cells; assay type: cell-based, human; conditions: SKOV3, KI 5 μM or 10 μM 1 h prior to 15 min 10% serum stimulation
Description: as §3, §4

MEK = experiment: Western blot of serum-induced MEK phosphorylation in SKOV3 cells; assay type: cell-based, human; conditions: SKOV3, KI 5 μM or 10 μM 1 h prior to 15 min 10% serum stimulation
Description: as §3, §4

JNK = experiment: Western blot of JNK phosphorylation in SKOV3 cells; assay type: cell-based, human; conditions: SKOV3, KI 5 μM or 10 μM 1 h prior to 15 min 10% serum stimulation; not significant
Description: as §3, §4

ERK = experiment: Western blot of serum-induced ERK phosphorylation in SKOV3 cells; assay type: cell-based, human; conditions: SKOV3, KI 5 μM or 10 μM 1 h prior to 15 min 10% serum stimulation
Description: as §3, §4

SKOV3 cells [5] = experiment: Transwell migration assay; assay type: cell-based, human; conditions: KI treatment, 5 h
Description: (§5) 12 wells cell culture insert, and 24 wells Transwell BioCoat™ growth factor reduced Matrigel™ invasion chambers (BD Biosciences, […]) were used for migration and invasion assays, respectively. After overnight serum starvation, cells were plated to the upper side of the Transwell device, at least in duplicates, in serum free medium, while the lower well contained regular 10% FBS culture medium in order to create an FBS gradient. The inventors plated 80,000 cells for migration assay and ended the experiment 5 h later. For invasion assay, the inventors plated 50,000 and stopped the experiment 24 h later. At the end of the experiment, the remaining cells in the upper side of the Transwell device were removed. Migrating and invading cells at the bottom side of the Transwell device were fixed and stained with crystal violet for 30 minutes and then counted in the central field (×2.5 objective, Zeiss Axioplan microscope, AxioCamERc 5s).

SKOV3 cells [6] = experiment: Transwell BioCoat Matrigel invasion assay; assay type: cell-based, human; conditions: KI treatment, 24 h
Description: as §5

Row | Structure (SMILES) | tumor growth inhibition (TGI) (high-MAP3K8 PDX model [1]) | tumor growth (high-MAP3K8 PDX model [1]) | lung metastatic incidence (high-MAP3K8 PDX model [2]) | tumor growth inhibition (TGI) (low-MAP3K8 PDX model) | tumor growth (low-MAP3K8 PDX model) | total number of cells (SKOV3 cells [3]; 5 μM KI vs untreated) | cell viability (SKOV3 cells [3]; KI treatment) | cell doubling time (SKOV3 cells [3]; KI treatment vs untreated) | serum-induced p38MAPK phosphorylation (p38MAPK) | percentage of cells in G1 phase (SKOV3 cells [4]) | serum-induced NF-κB phosphorylation (NF-κB) | serum-induced MEK phosphorylation (MEK) | JNK phosphorylation (JNK) | serum-induced ERK phosphorylation (ERK) | cell migration (SKOV3 cells [5]) | cell invasion (SKOV3 cells [6])
1 | Cn1cnc2c(F)c(Nc3ccc(Br)cc3F)c(C(=O)NOCCO)cc21 [MEK162] | ~60% | markedly reduced tumor growth | significantly reduced | 22% | much less impact |  |  |  |  |  |  |  |  |  |  | 
2 | N#Cc1cnc2cnc(NCc3cccnc3)cc2c1Nc1ccc(F)c(Cl)c1 [KI] |  |  |  |  |  | reduced the total number of cells | without any impact on cell viability | increase in cell doubling time | not affected | significant increase | not affected | significantly reduced | slight decrease | significantly reduced | significantly reduced cell migration | inhibited
3 | Cn1cnc2c(F)c(Nc3ccc(Br)cc3Cl)c(C(=O)NOCCO)cc21 [AZD6244] | ~60% | markedly reduced tumor growth | significantly reduced | 22% | much less impact |  |  |  |  |  |  |  |  |  |  | 

From US20170242015A1, “MAP3K8 AS A MARKER FOR SELECTING A PATIENT AFFECTED WITH AN OVARIAN CANCER FOR A TREATMENT WITH A MEK INHIBITOR” (INSTITUT CURIE, priority 2014, published 2017)
